# Measurements: patent US20220313629A1, “TRANSIENT POTENTIAL MELASTATIN 8 (TRPM8) ANTAGONISTS AND RELATED METHODS” (MARSHALL UNIVERSITY RESEARCH CORPORATION, priority 2019, published 2022)
# Assays:
# [1] = system: icilin-induced wet-dog shakes (WDS) in ICR (CD1) mice; assay: Wet-dog shakes (WDS) assay, icilin-induced; assay type: in vivo, mouse
# [2] = system: Oxaliplatin (OXP)-induced cold allodynia in male C57-mice; assay: Oxaliplatin (OXP)-induced cold allodynia, acetone test; assay type: in vivo, mouse
# Protocol: In Vivo Assays. C57-mice (≈30g) (Harlam, Holland) were used for the study. All experiments were approved by the Institutional Animal and Ethical Committee of the Universidad Miguel Hernandez where experiments were conducted and they were in accordance with the guidelines of the Economic European Community and the Committee for Research and Ethical Issues of the International Association for the Study of Pain. All parts of the study concerning animal care were performed under the control of veterinarians.
# Cold allodynia. Oxaliplatin (Tocris) was dissolved in water with gentle warming and was […] injected on days 1, 3 and 5 at a 6 mg/kg dose. The day 7 after administration, experiments were performed. Together with Oxaliplatin injection, saline and a 5% Mannitol solution were intraperitoneally injected to prevent kidney damage and dehydration. The Compound 14 stock was prepared in DMSO (Sigma-Aldrich) and diluted in saline for injections. Compounds at different doses (0.1 to 1 μg) was injected into the plantar surface (25 μL) of the right hind paw of mice. Cold chemical thermal sensitivity was assessed using acetone drop method. Mice were placed in a metal mesh cage and allowed to habituate for approximately 30 minutes in order to acclimatize them. Freshly dispensed acetone drop (10 μL) was applied gently on to the mid plantar surface of the hind paw. Cold chemical sensitive reaction with respect to paw licking was recorded as a positive response (nociceptive pain response). The responses were measured for 20-s with a digital stopwatch. For each measurement, the paw was sampled twice and the mean was calculated. The interval between each application of acetone was approximately 5 minutes.
# Cold Allodynia. […] Both acute and chronic OXP-induced cold hypersensitivity have been reproduced in rats and correlated with TRPM8 expression and function. Mizoguchi et al. reported that, in a rodent model, acute cold allodynia after OXP injection was alleviated by the TRPM8 blockers N-(2-aminoethyl)-N-[4-(benzyloxy)-3-methoxybenzyl]-N′-(1S)-1-(phenyl) ethyl] urea and TC-I 2014. According to these findings, the effect of Compound 14 was investigated in an OXP-induced cold allodynia model, using acetone for cooling stimulation. Considering that the cold pain threshold is increased from ≈12° C. to ≈26° C. in OXP-treated patients, acetone stimulation is considered to evoke pain in OXP-treated mice.
# The activity of Compound 14 was evaluated 7 days after three intraperitoneal injections of OXP (6 mg/kg) in C57/BL6 mice, when cold allodynia had developed.
# [3] = Stability in liver microsomes; assay type: in vitro ADME; details: mouse liver microsomes, 1 μM, NADPH
# Protocol: Stability in liver microsomes. Male CD-1 mouse liver microsomes (Lot#1710069) were purchased from XenoTech. The reaction mixture, minus NADPH, was prepared as described below. Compound 14 was added into the reaction mixture at a final concentration of 1 μM. The control compound, testosterone, was run simultaneously with Compound 14 in a separate reaction. An aliquot of the reaction mixture (without cofactor) was equilibrated in a shaking water bath at 37° C. for 3 minutes. The reaction was initiated by the addition of the cofactor, and the mixture was incubated in a shaking water bath at 37° C. Aliquots (100 μL) were withdrawn at 0, 10, 20, 30, and 60 minutes. Compound 14 and testosterone samples were immediately combined with 400 μL of ice-cold 50/50 acetonitrile (ACN)/H2O containing 0.1% formic acid and internal standard to terminate the reaction. The samples were then mixed and centrifuged to precipitate proteins. All samples were assayed by LC-MS/MS using electrospray ionization. […] are compared to the PARR at time 0 to determine the percent remaining at each time point. Half-lives and intrinsic clearance were calculated using GraphPad software, fitting to a single-phase exponential decay equation.
# In vitro metabolic stability. Compound 14 was evaluated for metabolic stability in mouse liver microsomes by Absorption Systems (Exton, Pa.), by determining the percent remaining at 0, 10, 20, 30 and 60 minutes when incubated with mouse liver microsomes in the presence of NADPH. The half-life (t1/2) and in vitro intrinsic clearance (CLint) of Compound 14 was calculated, in addition to the control (testosterone).
# human TRPV1 = human TRPV1 (Homo sapiens, UniProt Q8NER1); assay: TRPV1 agonist and antagonist Ca2+ flux assay (FLIPR, Fluo-8) in HEK293 cells stably expressing human TRPV1; assay type: cell-based; details: for hTRPV1 % Activation (n = 3): normalized to Emax of capsaicin (3 μM)
# [4] = 0.1 and 1 μg single administration, day 7 after OXP
# [5] = HEK293, read-out: hTRPV1 % Inhibition (n = 3)
# human TRPV1, sequence (Q8NER1 whole entry): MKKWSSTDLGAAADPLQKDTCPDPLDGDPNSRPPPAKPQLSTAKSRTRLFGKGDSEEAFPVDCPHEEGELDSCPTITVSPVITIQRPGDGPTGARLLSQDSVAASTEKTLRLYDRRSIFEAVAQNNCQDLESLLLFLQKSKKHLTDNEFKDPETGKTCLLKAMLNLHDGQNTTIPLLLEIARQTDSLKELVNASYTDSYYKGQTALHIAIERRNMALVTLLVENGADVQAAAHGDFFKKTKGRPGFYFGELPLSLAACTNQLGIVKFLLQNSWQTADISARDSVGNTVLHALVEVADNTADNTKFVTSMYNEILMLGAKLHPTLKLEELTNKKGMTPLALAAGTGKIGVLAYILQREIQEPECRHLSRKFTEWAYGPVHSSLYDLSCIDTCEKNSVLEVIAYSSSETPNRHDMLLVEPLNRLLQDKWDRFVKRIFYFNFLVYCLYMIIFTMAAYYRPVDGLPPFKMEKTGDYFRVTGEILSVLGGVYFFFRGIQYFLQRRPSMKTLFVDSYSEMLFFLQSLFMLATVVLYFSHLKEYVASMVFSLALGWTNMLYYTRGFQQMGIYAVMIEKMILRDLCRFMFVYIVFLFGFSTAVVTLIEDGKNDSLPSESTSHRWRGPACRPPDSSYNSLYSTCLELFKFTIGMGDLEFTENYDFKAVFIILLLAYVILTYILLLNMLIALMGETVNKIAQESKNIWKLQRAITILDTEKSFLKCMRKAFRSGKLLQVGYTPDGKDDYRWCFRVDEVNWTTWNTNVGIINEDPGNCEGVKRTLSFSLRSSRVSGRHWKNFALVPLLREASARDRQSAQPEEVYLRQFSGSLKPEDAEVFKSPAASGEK
compound,measurement,setting,value
"O=C(NC1CCC2(CCCC2)CC1)c1ccc(-c2ccccc2)cc1 [Compound 14, N-(spiro[4.5]decan-8-yl)-[1,1′-biphenyl]-4-carboxamide]",inhibition of WDS at the highest dose compared with gabapentin,"[1]; 50 mg/kg s.c., gabapentin 25 mg/kg s.c.",efficacy comparable to that observed with a standard analgesic dose of gabapentin
same,effect on icilin-induced wet-dog shakes,"[1]; 1, 30 and 50 mg/kg s.c. 30 minutes before icilin (10 mg/kg i.p.)","marked, dose-dependent antinociceptive behavior"
same,time after administration at which attenuated cold allodynia is evident,[2]; [4],15 min
same,time after administration of maximum inhibition of cold allodynia,[2]; [4],30 min
same,effect on OXP effects at 60 minutes,[2]; 60 minutes after administration,significantly suppresses OXP effects
same,effect on oxaliplatin-induced cold allodynia,[2]; C57/BL6 mice,able to attenuate oxaliplatin-induced cold allodynia in vivo
same,"% Remaining of Initial (n = 1), 0 min",[3]; 0 min,100%
same,"% Remaining of Initial (n = 1), 10 min",[3]; 10 min,78%
same,"% Remaining of Initial (n = 1), 20 min",[3]; 20 min,57%
same,"% Remaining of Initial (n = 1), 30 min",[3]; 30 min,47%
same,"% Remaining of Initial (n = 1), 60 min",[3]; 60 min,31%
same,inhibition at 0.003 µM,human TRPV1; [5],-9 ± 2%
same,inhibition at 0.03 µM,human TRPV1; [5],-0.6 ± 5%
same,effect on hTRPV1-mediated responses (intrinsic and antagonist activity),human TRPV1; at concentrations 13- to 25-fold higher than hTRPM8 IC50,do not affect
same,selectivity for TRPM8 vs. TRPV1,human TRPV1; from FLIPR single-point assays,13 fold
same,hTRPV1 % Activation (n = 3),human TRPV1; tested at 3 nM,1 ± 1%
same,hTRPV1 % Activation (n = 3),human TRPV1; tested at 30 nM,1 ± 2%
